Measurements from a melting point compilation (Tetko et al.; mined from patent text by program, amines drawn as free bases though some values may be those of a salt).

Row | SMILES | melting point [°C]
1 | CC(C)C(NC(=O)Nc1ccc(C(=O)NCC(=O)N(C)C)cc1)C(=O)N1CCCC1C(=O)NC(C(=O)C(F)(F)F)C(C)C (mixture of isomers) | 115 to 125
2 | O=C(c1ncc[nH]1)c1cc(F)c(F)cc1Cl | 80 to 81
3 | Cc1c(O)c(=O)ccn1CC(=O)O | > 230
4 | CC(O)c1nccc2ccccc12 (stereo unspecified) | 60 to 62
5 | N#Cc1ccc(-c2cn(-c3ccc(C#N)cc3)c(SCCO)n2)cc1 | > 300
6 | CCN(CC)CCc1ccc2cc(N)ccc2n1 | 93 to 94
7 | CON=C(C1=NOCCO1)c1ccccc1CCl | 93 to 96
8 | O=C(Nc1ccccc1)N1Cc2cccn2-c2ccsc2C1=O | 176
9 | CN1CCN(c2cc3ccccc3cn2)CC1 | 93 to 94
10 | COc1cc(Br)cc(C23CC4CC(CC(C4)C2)C3)c1O | 157 to 159
11 | Oc1ccccc1Oc1ccc(-c2ccsc2)cc1O | 114 to 116
12 | N#Cc1ccc(S(=O)(=O)n2ccc3ccccc32)cc1C#N | 171 to 173
13 | C[C@H](C#Cc1ccc(Cc2cc3ccccc3s2)s1)N(O)C(N)=O | 157 to 159
14 | FC(F)(F)c1ccc2ncc(Br)cc2c1 | 79
15 | O=C(NCCCl)NCc1cccnc1 | 95
16 | COC(=O)C1(C)CN(C(=O)Nc2ccc(Cl)cc2)N=C1c1ccc(Cl)cc1 (stereo unspecified) | 122
17 | CSc1nc(O)cc(O)n1 | > 250
18 | O=C(O)CC1CCN(c2ccc3c(NC(=O)CC4CCCCC4)c(Cl)ccc3n2)CC1 | 242 to 244
19 | CC(C)(CO)NC(=O)c1nn(-c2ccc(F)cc2F)c2c1C1CCC2CC1 | 128 to 131
20 | Cc1cc2c(cc1CSCC(=O)O)OCO2 | 90 to 92
21 | CC(C)c1nc2c(nc1C(C)C)C(=O)CCC2 | 92 to 94
22 | COC(=O)c1ccn2c1C(C(=O)OC)CC2 (stereo unspecified) | 70 to 71

Now from value to molecule:

Row | melting point [°C] | SMILES
23 | 119 to 120 | COc1ccc(Oc2cn(C)cc(-c3cccc(C(F)(F)F)c3)c2=O)cc1
24 | 211 to 212 | Cc1nn(-c2ccc([N+](=O)[O-])cc2F)c(=O)[nH]1
25 | 97 to 99 | CCCCNc1c(C(=O)OCC)c(C)nc2nc(C)c(C)nc12
26 | 99 to 100 | O=C(COC(=O)c1ccccc1Nc1ccnc2c(C(F)(F)F)cccc12)OC1CCN(Cc2ccccc2)CC1
27 | 114 to 116 | COc1ccc(C=CC(=O)N2CC(CCl)c3c2cc(N)c2ccccc32)cc1 (stereo unspecified)
28 | 128 to 130 | COc1cc2ncc(C#N)c(Nc3ccc(C)cc3)c2cc1OC
29 | 236 | CCCn1c(=O)c2[nH]c(/C=C/c3cccc(OC)c3OC)nc2n(CCC)c1=O
30 | 94 to 95 | COc1ccccc1N1CCN(CCCCN2CCN(c3ccccc3)C2=O)CC1
31 | 100 to 105 | COC(=O)C1=C(C)NC(C)=C(C(=O)OCCN(O)CCC(c2ccccc2)c2ccccc2)C1c1cccc([N+](=O)[O-])c1 (stereo unspecified)
32 | 108 to 110 | COC(=O)c1cc2cc(OC)c(OCCCl)cc2nc1N=CN(C)C
33 | 172 to 173 | CCCN1CCC(C(=O)O)=Cc2cc(Br)ccc21
34 | 180 to 183 | CCc1cccc(Nc2nc(OCC3CCCCC3)c3[nH]cnc3n2)c1
35 | 143 to 146 | COc1ccc(N2CCN(c3ccc(OC)nc3-c3ccc(C)cc3)CC2)cc1
36 | 241 | CCOC(=O)Nc1ccc2c(c1)C(c1ccccc1Cl)=CCC(=O)N2
37 | 142 to 144 | CC(C)c1cccc(-c2c(-c3ccc4nn(C)cc4c3)nsc2NC(=O)[C@@H]2C[C@H]2C)n1
38 | 133 to 142 | CC(=O)Nc1c(C(=O)c2cccc(NS(C)(=O)=O)c2)[nH]c2cc(Cl)ccc12
39 | 151 to 153 | C=CCn1c(NNC(=O)CCCl)nc2ccccc2c1=O
40 | 150 to 152 | CC1(N)CCC(=O)N(C(=O)OCc2ccccc2)C1=O (stereo unspecified)
41 | 290 to 292 | O=C1NC(=O)C2(N1)C(=O)N(Cc1cc(Cl)c(Br)c(Cl)c1)c1ccccc12 (stereo unspecified)
